The results in this text go back to a melting point compilation (Tetko et al.; mined from patent text by program, amines drawn as free bases though some values may be those of a salt).

Structures are written as SMILES.

By melting point is commonly meant the temperature, or range, at which the solid turns liquid.

In turn, `Cc1ccc(N)cc1Nc1nccc(-c2cncnc2)n1` yielded a melting point of 164 to 167 °C. With `Cc1c2n(c3ccccc13)C(=O)C(=Cc1ncn(S(=O)(=O)N(C)C)c1C)CC2`, the melting point was 200 to 205 °C. For the compound `CC(C)(C)c1cc(C(C)(C)C)n(Cc2ccc(CNc3ccc(CCC(=O)O)c(F)c3)cc2)n1`, the melting point is 146 to 147 °C. Consider `CCONC(=O)c1cccc(NC(C)=C2C(=O)OC(=O)C(C(C)=O)=C2O)c1`, for which the melting point lay within 162 to 164 °C. As for `O=C(O)Cc1ccc2c(c1)C(=O)c1ccccc1CO2`, the melting point lay in the range of 126 to 128 °C.

As to `CSc1ccc(C(C)C)c(NC(=O)CN2CCN(CCCSc3nc4ccccc4o3)CC2)c1C(C)C`, the melting point lay in the range of 126 to 127 °C.

Regarding `CCCCCCCCCCCCCCCCNc1ccc(C(=O)NC(C)(C)C(=O)O)cc1`, the melting point lay within 199 to 202 °C. In turn, `O=C(c1cccs1)C(O)c1ccc(Cl)c(Cl)c1` (stereo not drawn) had a melting point of 108 to 109 °C. For the compound `CCN(C(=O)C(F)(F)F)c1ccc(C(=O)O)cc1`, the melting point came to 132 °C.

In turn, `O=C1Nc2cc(Cl)cc3c2N(CC3)c2ccccc21` gave a melting point of 252 to 255 °C.

In turn, `CC(=O)NC(CC(=O)N[C@@H]1CN2C(=O)N(c3cc(Cl)nc(Cl)c3)C(=O)[C@@]2(Cc2ccc(OC(F)(F)F)cc2)C1)C(N)=O` (stereo partly drawn) displayed a melting point of 153 °C. For the compound `COc1cc(-c2csc(C(N)=O)n2)cc(Cl)c1OC`, the melting point is 178 to 180 °C.

Compound `CCOC(=O)COc1cc(F)ccc1C(=S)NCc1cccc([N+](=O)[O-])c1` came in with a melting point of 118 °C. Next, `O=CC(CC(=O)O)NC(=O)C1CCCN2C(=O)CCC(NC(=O)CCc3ccccc3)C(=O)N12` (stereo not drawn): 96 to 97 °C.

As for `Cc1ccc(C(=O)Nc2ccc(C[C@H](NC(=O)Nc3ccccc3S(=O)(=O)c3ccccc3)C(=O)O)cc2)c(Cl)n1`, the melting point worked out at 210 °C. `Cc1c(C#N)c(=O)n(-c2cc(C(=O)OC(C)C)c(Cl)cc2F)c(=O)n1C` showed a melting point of 171 to 173 °C. Regarding `CCOC(=O)C1(C(=O)OCC)CCC2(NCCc3cc(OC)c(OC)cc32)C(C2c3cc(OC)c(OC)cc3CCN2CC)C1` (stereo not drawn), the melting point is 146 to 147 °C. Compound `COc1cc(OC)c(-c2cccnc2)cc1/C=C/C(=O)c1ccc(S(N)(=O)=O)cc1` yielded a melting point of 253 to 255 °C. `CCCc1ccc(-c2c3ccccc3c(-c3ccc(CCC)cc3)c3cc(Cl)ccc23)cc1` showed a melting point of 225 to 227 °C. Compound `CCOC(=O)C1=C(N)NC(C)=C(C(=O)OC)C1c1cc([N+](=O)[O-])ccc1Cl` (stereo not drawn) registered a melting point of 124 °C.

As to `COc1ccc(C#Cc2ccc(C(=O)O)s2)cc1C12CC3CC(CC(C3)C1)C2`, the melting point was in the range of 244 to 245 °C.

`CC(C)c1[nH]c2ccccc2c1Sc1ccc(O)cc1` gave a melting point of 116 °C. Turning to `CC(C)C(C(=O)O)c1cc(Cl)c(O)c(Cl)c1` (stereo not drawn), the melting point fell in the range of 152 to 154 °C. Turning to `Nc1nc2cccnc2c2c1nc(CCCO)n2CC1(O)CCOCC1`, the melting point was 237 to 238 °C. The value for `COc1ccc(CNc2nc(Cl)c3ncn(Cc4ccc(OC)cc4)c3n2)cc1` was 161 to 164 °C; that for `COc1ccc(O)c(C(=O)c2ccc(O)cc2)c1` was 144 to 148 °C. Compound `CC(C)(C)[Si](C)(C)OC1CC=C(c2ccc(NC(=O)OCc3ccccc3)c(F)c2)CC1` (stereo not drawn) came in with a melting point of 116 to 119 °C. The value for `C=Cc1ccc(NC(C)=O)nc1` was 120 to 121 °C; that for `CC(=O)NC[C@H]1CN(c2ccc(N3CCC(Cc4nnc(-c5ccccc5)o4)CC3)c(F)c2)C(=O)O1` was 199 to 200 °C; that for `CS(=O)(=O)Nc1ccc(OC2CCCC2)cc1` was 140 to 142 °C. The value for `COC1(C(O)CN2CCC(n3c(=O)[nH]c4ccccc43)CC2)COc2ccccc2O1` (stereo not drawn) was 143 to 144 °C. In turn, `O=C1c2ccccc2-c2c1c1ccccc1c(=O)n2C1CC1` showed a melting point of 206 to 208 °C. Take `O=C(OI(OC(=O)C(F)(F)F)C(F)(F)C(F)(F)C(F)(F)C(F)(F)C(F)(F)C(F)(F)F)C(F)(F)F`: the melting point was in the range of 60 to 62 °C. With `O=c1c2cc(C=NO)ccc2oc2ncccc12`, the melting point fell in the range of 254 to 256 °C.

In turn, `CCCCc1c(-c2ccccc2)nc(N)nc1-c1ccccc1` yielded a melting point of 154 to 155 °C. Next, `O=C1C(=O)c2ccccc2C2=C1SCC1(CCN(CC(O)CC(F)(F)F)CC1)O2` (stereo not drawn): 145 to 148 °C; `Cc1nc(NC(=O)Cc2ccsc2)c(Br)c(C)c1Br`: 157 °C. Regarding `COC(=O)c1nc(Cl)c(F)c(N)c1/C=C/[Si](C)(C)C`, the melting point lay in the range of 103 to 105 °C. Next, `CC1COc2c(N3Cc4ccccc4C3)c(F)cc3c(=O)c(C(=O)O)cn1c23` (stereo not drawn): > 300 °C; `CCCOc1n[nH]c(=O)n1C1CCCCC1`: 132 to 136 °C; `CN(Cc1ccccc1)c1cc(Oc2cccc(C(F)(F)F)c2)nc(C(=O)Nc2ccccc2)c1`: 111 to 114 °C. Take `Cc1cc(Cc2c(F)cc(N)cc2F)n(C)c1C(=O)c1ccc(Cl)cc1`: the melting point is 208 to 210 °C. `Sc1n[nH]c(-n2cccn2)n1` gave a melting point of 245 to 247 °C. `O=C(CBr)c1cc2ccccc2[nH]1` came in with a melting point of 125 to 130 °C. Turning to `N#CSc1nc(Cl)ncc1I`, the melting point lay within 185 to 186 °C. In turn, `CCc1ccc([N+](=O)[O-])cc1COC` came in with a melting point of 21.5 to 23.5 °C. Compound `Cc1ccc(NC(=S)N2CCC(O)C2)c(C)c1` (stereo not drawn) gave a melting point of 164 to 166 °C. In turn, `CCOC(=O)c1cnn2c(C3CC3)cc(-c3ccc(C(F)(F)F)cc3)cc12` showed a melting point of 117 °C. `CC(C)(C)S(=O)C1CC(=O)N1CC(=O)CCc1ccccc1` (stereo not drawn) returned a melting point of 79 to 81 °C. Compound `CC(C)(C)OC(=O)NC1CCc2ccc(C=O)cc2C1` (stereo not drawn) yielded a melting point of 98 to 101 °C. Regarding `Cc1oc(-c2ccco2)nc1COc1cccc(CO)c1`, the melting point was in the range of 100 to 101 °C.

`CNC(=O)CS(=O)(=O)c1ccccc1` showed a melting point of 106 to 109 °C. In turn, `C=C(c1ccc(NC(=O)OC(C)(C)C)c(C)c1)C(F)(F)F` yielded a melting point of 86 to 88 °C. The value for `CCOC=C(C(C)=O)C(=O)NCc1ccc(Cl)cc1` was 103 to 105 °C; that for `Cc1cc(C)cc(-c2cnn3c(-c4cccc(C#N)c4)ccnc23)c1` was 147 °C.

Regarding `CC1CC(=O)NN=C1c1ccc(C2=NNC(=O)CC2C)cc1` (stereo not drawn), the melting point is > 300 °C. Next, `O=C1CCCC(=O)N1C(Sc1nnn[nH]1)c1ccccc1` (stereo not drawn): 84 to 85 °C; `C=CCC(=NO)C(C)=NNc1c(Cl)cc(C(F)(F)F)cc1Cl`: 71 to 73 °C; `CC(=O)C(C)Oc1nn(C(C)C(C)=O)c(-c2ccc(S(C)(=O)=O)cc2)c1-c1ccc(F)cc1` (stereo not drawn): 127 to 129 °C. Regarding `Cc1oc(-c2ccccc2)nc1CCOc1ccc(CC(C(=O)O)c2nc(-c3ccccc3)oc2C)cc1` (stereo not drawn), the melting point is 120 °C.

`Cc1cc(C(N)=O)ncc1C(c1c(F)ccc(F)c1F)S(=O)(=O)c1ccc2ccoc2c1` (stereo not drawn) gave a melting point of 237 to 240 °C. In turn, `O=C1N(Cc2ccncc2)Cc2cccnc2N1c1cccc([N+](=O)[O-])c1` came in with a melting point of 169 to 170 °C. For the compound `Nc1nc(Cl)cc(C#Cc2ccc3c(C(=O)Nc4cccc(C(F)(F)F)c4)cccc3c2)n1`, the melting point was 171 to 175 °C.

As for `CNC(=O)C(=NOC)c1ccccc1ON=C(C)c1cccc(C)c1`, the melting point was in the range of 109 to 111 °C. For `COC(=O)N1Cc2ccccc2C(c2ccccc2Cl)c2ccccc21` (stereo not drawn), the melting point is 159 to 161 °C. `C[C@H](Oc1cc(-c2c3ccccc3c(Br)c3sc4ccccc4c23)ccc1Br)C(=O)O` registered a melting point of 132 to 134 °C. On to `N[C@@]1(C(=O)O)C[C@H](NC(=O)Nc2cccc(F)c2)[C@H]2[C@H](C(=O)O)[C@H]21` (relative stereo), for which the melting point is > 250 °C. Turning to `CCCC=Cc1c(CC)nc(CC)c(CO)c1-c1ccccc1`, the melting point was in the range of 74 to 76 °C. In turn, `COCCN(CCOC)Cc1nc(-c2ncn3c2[C@@H]2CCN2C(=O)c2c(Cl)cccc2-3)no1` came in with a melting point of 188 to 190 °C. `Cc1nn(C)c2c(O)nc(C3CC3)nc12` gave a melting point of 238 to 240 °C. With `c1cc2ccsc2cn1`, the melting point is < 50 °C. Next, `N#Cc1c[nH]cc1-c1cccc(C(F)(F)F)c1Cl`: 82 °C; `CCCCC(NS(=O)(=O)c1ccc(Cl)cc1)C(=S)Nc1ccc(CC(=O)OCC)cc1` (racemic): 70 to 73 °C; `CC(C)(C)c1cc(CCC(=O)O)n(Cc2ccc(C(F)(F)F)cc2Cl)n1`: 128 to 129 °C.

Consider `C=CCc1cc(COC(=O)C(C)C)ccc1C#CC1(O)CN2CCC1CC2` (stereo not drawn), for which the melting point was found to be 68 °C. The value for `COC(=O)/C=C/c1ccc(-c2ccc(C(C)C)cc2)s1` was 117 to 119 °C. For the compound `CC1(C)N=C(c2ccccc2F)c2cc(C#N)ccc2NC1=O`, the melting point came out at 206 °C. `O=C1C2CCN(CC2)C1CC(c1ccccc1)c1ccccc1` (stereo not drawn) registered a melting point of 107 °C. Next, `CC(C)(C)c1nc(-c2ncn3c2COc2cc(F)ccc2-3)no1`: 133 to 135 °C; `CN(C(=O)c1cccc(C(=O)O)c1)c1ccc2c(=O)n3c(nc2c1)C(=Cc1ccccc1)CC3`: 302 to 304 °C. `CCCCCCCCCCCCCCOc1ccc(C(=O)O)cc1` showed a melting point of 95 to 99 °C.

In the case of `O=C1CCC(N2Cc3c(OCC4CCCOC4)cccc3C2=O)C(=O)N1` (stereo not drawn), the melting point is 118 to 120 °C. Turning to `C=CCc1cc2c(cc1O)C(C)(C)C(O)O2` (stereo not drawn), the melting point was 66 to 67 °C. The compound `O=C(c1cnc2ccccc2n1)N1CC2CC2(c2ccc(Cl)cc2)C1` (stereo not drawn) gave a melting point of 90 to 105 °C. Next, `COc1ccc2[nH]c3c(C(=O)Nc4ccc(CCCCN(C)CCc5ccc(OC)c(OC)c5)cc4)cccc3c(=O)c2c1`: 155 °C. The compound `CC(=O)C1CCC2C3CCC4=CC(=O)C=CC4(C)C3CCC12C` (stereo not drawn) gave a melting point of 183 to 185 °C. In turn, `C=CCOC(=O)c1ccc(COC(=O)Nc2cnc(-c3ccccc3)n(CC(=O)NC(Cc3ccccc3)C(O)C(F)(F)F)c2=O)cc1` (stereo not drawn) displayed a melting point of 126 to 135 °C.

`Cc1ccccc1NC(=O)N(C)C` displayed a melting point of 139 to 143 °C.
